{"source": "patent US20040039050A1", "about": "“Cryptotanshinone for preventing and alleviating alzheimer's disease” (priority 2001, published 2004)", "key": {"[1]": {"system": "high-level brain ammonia animal model", "assay": "Brain tissue ammonia concentration reducing experiment (injection)", "assay_type": "in vivo, SD rats", "settings": "for Reduction rate: brain tissue ammonia, intraperitoneal for 4 days, 60 min after acetamide on 4th day; for Brain tissue ammonia concentration: intraperitoneal for 4 days (sodium glutamate 410 mg/kg, Cryptotanshinone 30 mg/kg), brain 60 min after acetamide on 4th day", "text": "(§1) The dose of sodium glutamate in this example and following examples was settled with the reference of its actual clinical dose. The method for determining the blood ammonia concentration in this example and following examples was enzyme-UV method, the instrument used was HITACHI-7170 automatic analyzer, and the kit used was AMMONIA kit. Calculation formula of decrease ratio in Table 1 and following tables was: Decrease rate=[1−(concentration of treating group−concentration of normal control group)/(concentration of experimental control group−concentration of normal control group)]×100%.\n(§2) Experimental animals were 50 healthy male SD rats, weight between 250-300 g. They were randomly divided into 4 groups, i.e. normal control group, experimental control group ([…]), sodium glutamate/acetamide group, and Cryptotanshinone/acetamide group. The rats in all those groups except the normal control group were injected intraperitoneally with saline, sodium glutamate solution (with a dose of 410 mg/kg), and saline solution of Cryptotanshinone (containing small amount of surface active agent, with a dose of 30 mg/kg) respectively. 45 min after the injection, the rats in all those groups except the normal control group were injected intraperitoneally with 5.5 mmol/kg acetamide. Above injections continued for 4 days. In the 4th day, 60 min after the acetamide injection, the rats of each group were put to death, and brain tissue samples were taken out immediately and homogenized under low temperature condition, then the ammonia concentration in brain tissue was determined by using glutamate dehydrogenase assay."}, "[2]": {"system": "high-level brain ammonia animal model", "assay": "Brain tissue ammonia concentration reducing experiment (oral)", "assay_type": "in vivo, SD rats", "settings": "for Reduction rate: brain tissue ammonia, oral for 4 days, 60 min after acetamide on 4th day; for Brain tissue ammonia concentration: oral for 4 days (sodium glutamate 200 mg/kg, Cryptotanshinone 150 mg/kg), brain 60 min after acetamide on 4th day", "text": "as §1\nas §2, with “The rats in all those groups except the normal control group were injected intraperitoneally with saline, sodium glutamate solution (with a dose of 410 mg/kg), and saline solution of Cryptotanshinone (containing small amount of surface active agent, with a dose of 30 mg/kg) respectively.” left out\nThe same experiment condition in example 6 was adopted except Sodium Glutamate oral taking (the dose was 200 mg/kg) instead of Sodium Glutamate injection and Cryptotanshinone oral taking (dose 150 mg/kg) instead of Cryptotanshinone injection. In the 4th day, 60 min after the acetamide injection, the rats of each group were put to death and brain tissue samples were taken out immediately. Then, the ammonia concentration in brain tissue was determined."}, "[3]": {"system": "healthy male mice", "assay": "30 days toxicity test in mouse", "assay_type": "in vivo", "settings": "intragastric 200 mg/kg day for 30 days", "method": "The drug was continually administrated intragastrically for 30 days with dose of 200 mg/kg day."}, "[4]": {"system": "hyperammonemia rat model", "assay": "Blood ammonia reducing experiment (injection)", "assay_type": "in vivo, SD rats", "settings": "for Reduction rate: blood ammonia, intraperitoneal for 4 days", "method": "The animals used in this experiment were 50 healthy male SD rats weighing 250-300 g. They were randomly divided into 5 groups, that is, normal control group, experimental control group (acetamide group), sodium glutamate/acetamide group, Cryptotanshinone/acetamide group and tanshinone IIA/acetamide group. The rats in all those groups except the normal control group were injected intraperitoneally with saline, sodium glutamate injection (with a dose of 410 mg/kg), saline solution of Cryptotanshinone (containing small amount of surface active agent, with a dose of 10 mg/kg), saline solution of tanshinone IIA (containing small amount of surface active agent, with a dose of 10 mg/kg) respectively. 45 min after the injection, the rats in all those groups except normal control group were injected intraperitoneally with 5.5 mmol/kg acetamide. Above injections continued for 4 days. In the 4th day, 30 min after the acetamide injection, blood samples of the rats in each group were collected by eyeball removing method immediately, and processed with the anticoagulant EDTA-Na, then the blood ammonia concentration was determined using conventional method.\nas §1\nUsing the same experiment method, 90 min after the acetamide injection at the 4th day, blood samples of the rats in each group were collected by eyeball removing method immediately. The blood ammonia concentration was determined."}, "[5]": {"assay": "Brain tissue entrance experiment", "assay_type": "in vivo, rats", "settings": "intragastric 300 mg/kg/day for 5 days; brain 1 hour after administration on 5th day; chloroform extract", "method": "Experimental animals were healthy male rats. The drug was continually administrated intragastrically at a dose of 300 mg/kg/day, continued for 5 days. 1 hour after administration on the 5th day, rats were put to death and brains were taken out. The brain tissues were homogenized and then extracted with chloroform."}, "[6]": {"settings": "rats"}, "[7]": {"system": "healthy male mice", "assay": "Acute toxicity test in mouse", "assay_type": "in vivo", "settings": "intragastric", "text": "The drug was administrated intragastrically."}, "[8]": {"system": "AD rat model", "assay": "Impaired neuro-behavioral symptoms relieving experiment, Morris water labyrinth", "assay_type": "in vivo, SD rats", "design": "key: —: −Normal; +Dysmnesia (Number of + indicates the extent of memory impairment, and +++++ represents the most severe case.); +++++ represents the most severe case", "settings": "oral 200 mg/kg/day, D-galactose/acetamide rats", "text": "Experimental animals were 40 healthy male SD rats, weight between 250-300 g. They were randomly divided into 4 groups, i.e. normal control group, model control group A (D-galactose/quinolinic acid group), model control group B (D-galactose/acetamide group), and Cryptotanshinone group (D-galactose/acetamide/Cryptotanshinone group). Morris water labyrinth method was used to evaluate the neuro-behavioral symptoms of rats model caused by subacute senium and chemical damage by D-galactose.\nNormal control group: routine breeding.\nModel control group A (D-galactose/quinolinic acid group): D-galactose was injected subcutaneously (50 mg/kg/day, for 6 weeks) to cause subacute senium in rats. Quinolinic acid (1 μL, containing quinolinic acid 75 nmol) was injected into the rats' bilateral hippocampal gyrus to evidently decrease rats' labyrinth learning and memorizing ability, which served as animal model similar to AD.\nModel control group B (D-galactose/acetamide group): D-galactose was injected subcutaneously (50 mg/kg/day, for 6 weeks) to cause subacute senium in rats; acetamide (10 mmol/kg/day) was injected intraperitoneally for 7 continuous days. […] The treated rats were served as animal model similar to AD.\nCryptotanshinone group (D-galactose/acetamide/Cryptotanshinone group):\nSimultaneously with subcutaneous injection of D-galactose (50 mg/kg/day, for 6 weeks), Cryptotanshinone was orally administered (the dose was 200 mg/kg/day). 10 mmol/kg acetamide was intraperitoneally injected for 7 continuous days (Cryptotanshinone was orally given at the same time)."}, "[9]": {"system": "hyperammonemia rat model", "assay": "Blood ammonia reducing experiment (oral)", "assay_type": "in vivo, SD rats"}}, "data": [{"compound": "N[C@@H](CCC(=O)[O-])C(=O)[O-].[Na+].[Na+]", "note": "[Sodium Glutamate, reference compound]", "values": [{"measurement": "Reduction rate", "setting": "[1]", "value": 28, "unit": "%"}, {"measurement": "Brain tissue ammonia concentration", "setting": "[1]", "value": 350, "unit": "nmol/g"}, {"measurement": "Reduction rate", "setting": "[2]", "value": 19, "unit": "%"}, {"measurement": "Brain tissue ammonia concentration", "setting": "[2]", "value": 370, "unit": "nmol/g"}]}, {"compound": "C[C@H]1COC2=C1C(=O)C(=O)c1c2ccc2c1CCCC2(C)C", "note": "[Cryptotanshinone]", "values": [{"measurement": "Change in growth and development, hematopoiesis function, and biochemical index", "setting": "[3]", "value": "no apparent abnormal change or toxic reaction"}, {"measurement": "Death of the tested mice", "setting": "[3]", "value": "no death"}, {"measurement": "Pathology of major organs (anatomical and tissue microscopy inspection)", "setting": "[3]", "value": "No pathology change"}, {"measurement": "Reduction rate", "setting": "[4]; 30 min after acetamide on 4th day", "value": 60, "unit": "%"}, {"measurement": "Cryptotanshinone detected in brain tissue with HPLC", "setting": "[5]", "value": "Significant amount"}, {"measurement": "Reduction rate", "setting": "[1]", "value": 60, "unit": "%"}, {"measurement": "Brain tissue ammonia concentration", "setting": "[1]", "value": 280, "unit": "nmol/g"}, {"measurement": "Reduction rate", "setting": "[2]", "value": 45, "unit": "%"}, {"measurement": "Brain tissue ammonia concentration", "setting": "[2]", "value": 310, "unit": "nmol/g"}, {"measurement": "Content of Cryptotanshinone in tissues", "setting": "[6]", "value": "highest in blood and brain tissue"}, {"measurement": "LD50", "setting": "[7]", "value": "> 30", "unit": "g 1 kg"}, {"measurement": "Toxic symptom or death", "setting": "[7]; dose added to 1.5 g/kg", "value": "no toxic symptom or death"}, {"measurement": "AD Symptom-Dysmnesia Synthetic Index", "setting": "[8]; Day 1 after chemical damage", "value": "—"}, {"measurement": "AD Symptom-Dysmnesia Synthetic Index", "setting": "[8]; Day 2 after chemical damage", "value": "—"}, {"measurement": "AD Symptom-Dysmnesia Synthetic Index", "setting": "[8]; Day 3 after chemical damage", "value": "—"}, {"measurement": "AD Symptom-Dysmnesia Synthetic Index", "setting": "[8]; Day 4 after chemical damage", "value": "—"}, {"measurement": "AD Symptom-Dysmnesia Synthetic Index", "setting": "[8]; Day 5 after chemical damage", "value": "+"}, {"measurement": "AD Symptom-Dysmnesia Synthetic Index", "setting": "[8]; Day 6 after chemical damage", "value": "+"}, {"measurement": "AD Symptom-Dysmnesia Synthetic Index", "setting": "[8]; Day 7 after chemical damage", "value": "+"}]}, {"compound": "Cc1cccc2c3c(ccc12)C1=C(C(=O)C3=O)[C@@H](C)CO1", "note": "[Dihydrotanshinone I]", "values": [{"measurement": "Reduction rate", "setting": "[4]; 90 min after acetamide on 4th day", "value": 100, "unit": "%"}, {"measurement": "Blood ammonia concentration", "setting": "[4]; intraperitoneal for 4 days (sodium glutamate 410 mg/kg, others 10 mg/kg), blood 90 min after acetamide on 4th day", "value": 110, "unit": "µmol/L"}, {"measurement": "Reduction rate", "setting": "[9]; blood ammonia, oral for 4 days, 90 min after acetamide on 4th day", "value": 97, "unit": "%"}, {"measurement": "Blood ammonia concentration", "setting": "[9]; oral for 4 days (sodium glutamate 200 mg/kg, others 100 mg/kg), blood 90 min after acetamide on 4th day", "value": 120, "unit": "µmol/L"}]}]}
